Assay results: US20230045112A1, “DISULFIRAM AND OTHER REDOX-RELATED COMPOSITIONS FOR BRAIN TUMORS” (Texas Tech University System, priority 2014, published 2023)

Experiments:
MGMT [1] = molecular target: T1, MGMT (Homo sapiens, UniProt P16455); assay: MGMT activity and protein (western blot) in drug-treated T98G and UW228 brain tumor cells; assay type: cell-based; set-up: endogenous in cells; host or cells: UW228, T98G; details: UW228 cells
T1 sequence (P16455 1-207): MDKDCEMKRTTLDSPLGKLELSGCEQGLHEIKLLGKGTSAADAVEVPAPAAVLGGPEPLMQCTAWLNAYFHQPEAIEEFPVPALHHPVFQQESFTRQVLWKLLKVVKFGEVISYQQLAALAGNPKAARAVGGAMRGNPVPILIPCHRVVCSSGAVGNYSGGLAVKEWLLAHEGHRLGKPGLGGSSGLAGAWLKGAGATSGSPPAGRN
Procedure: The DNA repair activity of MGMT was measured by the transfer of [3H]-labeled methyl groups from the O^6-position of guanine in the DNA substrate to the MGMT protein as described previously. The DNA substrate enriched in O6-methylguanine was prepared by reacting [3H]-methylnitrosourea (GE Healthcare, 60 Ci/mmol). Briefly, the cell pellets were washed with cold PBS, disrupted by sonication in the assay buffer (30 mM Tris-HCl pH 7.5, 0.5 mM DTT, 0.5 mM EDTA, 5% glycerol, and 20 μM spermidine) and centrifuged. The extracts (50-150 μg protein) were supplemented with the [3H]-DNA (10,000 cpm) and incubated at 37° C. The reactions were terminated by the addition of TCA, the DNA substrate was hydrolyzed at 80° C., and following filtration on glass fiber discs; the radioactivity present in protein precipitates was quantitated.
After trypsinization, the cell pellets were washed with cold PBS, and subjected to sonication in 50 mM Tris-HCl (pH 8.0) containing 1% glycerol, 1 mM EDTA, 0.5 mM PMSF and 2 mM benzamidine and centrifuged. Equal protein amounts from different treatments were electrophoresed on 12% SDS-polyacrylamide gels. Proteins were electro-transferred to Immobilon-P membranes. The membranes were blocked with 5% non-fat dry milk in Trisbuffered saline (TBS; pH 8.0) containing 0.1% Tween 20 for 3 hours, and subsequently incubated with appropriate primary antibodies. Antigen-antibody complexes were visualized by enhanced chemiluminiscence (Pierce Company). Band intensities were quantified using a Bio-Rad Versa Doc Imaging system.
Cells were trypsinized, washed and MGMT activity was determined in cell extracts (top panel). The same extracts were western blotted for MGMT protein. WB, western blot. […] Cells were exposed to CuDSF and analyzed for MGMT activity and protein as above. […] To delineate the appropriate time for alkylating drug treatments following MGMT inhibition, next, the time course of MGMT depletion by these three interventions was studied.
At times indicated, MGMT activity and protein levels were assessed.
MGMT performs a stoichiometric reaction to accomplish the DNA repair and is not recycled to its active form. Instead, the inactivated protein is degraded and fresh translation has to occur to restore the MGMT levels in cells. The rate and extent of this recovery is an important factor in the extent of damage introduced to the normal cell genomes such as the bone marrow stem cells. […] MGMT protein and activity levels were analyzed during the depletion and repletion (FIG. 3B).

MGMT [2] = molecular target: T1, MGMT; set-up: endogenous in cells; host or cells: DAOY; details: cultured tumor cells; cited from earlier work
cell lines = assay: Cytotoxicity of NO-aspirin for cell lines; assay type: cell-based
MGMT [3] = molecular target: T1, MGMT; assay: MGMT activity and protein in MGMT-proficient human cancer cell lines (HT29, T47D, HCT116); assay type: cell-based; set-up: endogenous in cells; host or cells: HT29, T47D, HCT116

Structure (SMILES) | loss/inhibition of MGMT activity at 12 hours post-drug treatment (MGMT [1]; 50 μM, 12 hours) [%] | recovery of MGMT activity, % of control levels (MGMT [1]; 48 hours post-drug in drug-free media after 50 μM for 12 hours) | duration of suppression of DNA repair (MGMT [2]) [h] | IC50 (cell lines) [µM] | MGMT protein degraded (MGMT [3]; 5 μM for 2 hours) | inhibition of MGMT activity (MGMT [3]; HT29, T47D, HCT116, 5-10 μM, within 1 hour of exposure) [%] | MGMT protein regenerated (MGMT [3]; HT29 cells, 24 hours post-incubation in drug-free medium)
Nc1nc(OCc2ccccc2)c2nc[nH]c2n1 [BG, O^6-benzylguanine] | 100 | 25 % of control levels | 48 to 72 | – | – | – | –
CC(=O)Oc1ccccc1C(=O)Oc1cccc(CO[N+](=O)[O-])c1 [NCX-4016, 2-(acetyloxy) benzoic acid 3-[(nitrooxy)methyl]phenyl ester] | – | – | – | > 500 | 80-90% | 90 | More than 60%
